This note sets out measurements from US9421194B2, “Lung targeting dual drug delivery system” (priority 2010, dated 2016).

Structures are written as SMILES.

Data set [1] can be described thus: Systemic (plasma) concentration of CPT after single bolus IV injection. The class given is in vivo, rats. To be noted: free CPT IV, 2 mg/kg. As for the experimental part: FIG. 9 illustrates systemic (plasma) concentration of camptothecin (CPT) as a function of time after a single bolus IV injection of CPT-Nva-MPs (CPT dose=0.2 mg/kg) (squares) and free CPT (2 mg/kg) (triangles). Values are reported as mean±SD. The lower limit of quantitation was 0.1 ng/mL.
PEGylated 6 μm polystyrene MPs with three copies of the norvaline (Nva) α-amino acid prodrug of CPT were prepared. […] Referring to FIG. 10, anti-cancer efficacy was evaluated in an orthotopic rat lung cancer model and compared to a bolus injection of CPT. One week after A549 cell inoculation, nude rats were injected IV with CPT-Nva-MPs (50 and 100 mg/kg equivalent to CPT at 0.11 mg/kg and 0.22 mg/kg), free CPT (2 mg/kg) or vehicle control (saline containing 0.1% Tween 80). The treatment was conducted every 3 days for 27 days. The day after the last treatment, all animals were euthanized, and organs (lung, heart, […], spleen and […]) were dissected and weighed. The organs were fixed in 10% neutral buffered formalin for H&E staining. […] In addition, 40% of the animals receiving CPT-Nva-MPs (0.22 mg/kg) were free of cancer. […] See references 74 and 86, which are incorporated herein by reference as if fully set forth.

Data set [2] deals with A549 cell orthotopic lung cancer. In words: Anti-cancer efficacy in orthotopic rat lung cancer model. The class given is in vivo, nude rats. To be noted: 2 mg/kg IV every 3 days for 27 days; p<0.05. How it is done: PEGylated 6 μm polystyrene MPs with three copies of the norvaline (Nva) α-amino acid prodrug of CPT were prepared. […] The treatment was conducted every 3 days for 27 days. The day after the last treatment, all animals were euthanized, and organs (lung, heart, […], spleen and […]) were dissected and weighed. The organs were fixed in 10% neutral buffered formalin for H&E staining. […] See references 74 and 86, which are incorporated herein by reference as if fully set forth.

In the case of `CC[C@@]1(O)C(=O)OCc2c1cc1n(c2=O)Cc2cc3ccccc3nc2-1` [free CPT, camptothecin], the “systemic CPT exposure (in words)” value in data set [1] is “high but short-lived systemic exposures”. In data set [2], the “area of lung cancer versus untreated animals” value is given as “smaller areas of lung cancer”.
